The text below walks through data of patent US6747045B2, “(Benzodioxan, benzofuran or benzopyran) derivatives having fundic relaxation properties” (Janssen Pharmaceutica N.V., priority 1997, dated 2004).

The test system of one data set is fundus of the stomach. The data set is described as follows: Gastric tone measured by an electronic barostat in conscious dogs. Format: in vivo. The conditions noted are these: conscious female beagle dogs; 0.63 mg/kg s.c.; 1 hour after administration of the test compound. The protocol:
C.1. Gastric Tone Measured by an Electronic Barostat in Conscious Dogs
Gastric tone cannot be measured by manometric methods. Therefore an electronic barostat was used. This allows the study of the physiological pattern and regulation of gastric tone in conscious dogs and the influence of test-compounds on this tone.
The barostat consists of an air injection system which is connected by a double-lumen 14-French polyvinyl tube to an ultrathin flaccid polyethylene bag (maximal volume: ±700 ml). Variations in gastric tone were measured by recording changes in the volume of air within an intragastric bag, maintained at a constant pressure, or at varying pressure levels. The barostat maintains a constant pressure (preselected) within a flaccid air-filled bag introduced into the stomach, changing the volume of air within the bag by an electronic feedback system.
Thus, the barostat measures gastric motor activity (contraction or relaxation) as changes in intragastric volume (decrease or increase resp.) at a constant intragastric pressure. The barostat consists of a strain gauge linked by an electronic relay to an air injection-aspiration system. Both the strain gauge and the injection system are connected by means of double-lumen polyvinyl tube to an ultrathin polyethylene bag. A dial in the barostat allows selection of the pressure level to be maintained within the intragastric bag.
Female beagle dogs, weighing 7-17 kg, were trained to stand quietly in Pavlov frames. They were implanted with a gastric cannula under general anaesthesia and aseptic precautions. After a median laparotomy, an incision was made through the gastric wall in longitudinal direction between the greater and the lesser curve, 2 cm above the nerves of Latarjet. The cannula was secured to the gastric wall by means of a double purse string suture and brought out via a stub wound at the left quadrant of the hypochondrium. Dogs were allowed a recovery period of two weeks.
At the beginning of the experiment, the cannula was opened in order to remove any gastric juice or food remnants. If necessary, the stomach was cleansed with 40 to 50 ml lukewarm water. The ultrathin bag of the barostat was positioned into the fundus of the stomach through the gastric cannula. In order to ensure easy unfolding of the intragastric bag during the experiment, a volume of 150-200 ml was injected into the bag by raising the pressure to maximally 14 mm Hg (about 1.87 kPa) very briefly. This procedure was repeated twice. A stabilisation period of 1 hour was allowed. […]

Another data set concerns basilar arteries. The data set is described as follows: Vasoconstrictive activity on basilar artery. Set-up: species or system pigs. Particulars: Sus scrofa; pig basilar artery segments, organ bath; response relative to serotonin 3×10^−7 M; estimated from three preparations; read-out: ED50-value (concentration causing 50% of the constrictive response obtained with serotonin). The protocol: C.2 Vasoconstrictive Activity on Basilar Artery
Segments of basilar arteries taken from pigs (anaesthetised with sodium pentobarbital) were mounted for recording of isometric tension in organ baths. The preparations were bathed in Krebs-Henseleit solution. The solution was kept at 37° C. and gassed with a mixture of 95% O2-5% CO2. The preparations were stretched until a stable basal tensions of 2 grams was obtained.
The preparations were made to constrict with serotonin (3×10^−7 M). The response to the addition of serotonin was measured and subsequently the serotonin was washed away. This procedure was repeated until stable responses were obtained. Subsequently the test compound was administered to the organ bath and the constriction of the preparation was measured. This constrictive response was expressed as a percentage of the response to serotonin as measured previously.

With “(RR,SS)-1-[1-[2-(3,4-dihydro-2H-1-benzopyran-2-yl)-2-hydroxyethyl]-4-piperidinyl]-2-imidazolidinone [Compound 20]”, the “% effect (percentual effect on relaxation of the fundus)” value with fundus of the stomach was determined as 9.5%.

Take `NC(=O)Nc1nccn1C1CCN(CC2CCc3ccccc3O2)CC1` (racemic) [Compound 66, (±)-[1-[1-[(3,4-dihydro-2H-1-benzopyran-2-yl)methyl]-4-piperidinyl]-1H-imidazol-2-yl]urea]: the EC50 in the data set with basilar arteries is above 1000 nM.

Turning to `O=C(O)C(=O)O.O=C1NCCCN1CCCNC[C@H]1CCc2ccccc2O1` [Compound 3, (R)-1-[3-[[(3,4-dihydro-2H-1-benzopyran-2-yl)methyl]amino]propyl]-tetrahydro-2(1H)-pyrimidinone ethanedioate (1:1)], the EC50 in the data set on basilar arteries was above 1000 nM. Besides, the “% effect (percentual effect on relaxation of the fundus)” value with fundus of the stomach turned out to be 36.2%.

`O=C(O)C(=O)O.S=C1NCCCN1CCCNCC1CCc2ccccc2O1` (racemic) [Compound 14, (±)-1-[3-[[(3,4-dihydro-2H-1-benzopyran-2-yl)-methyl]amino]propyl]tetrahydro-2(1H)-pyrimidinethione ethanedioate(1:1)] gave a melting point of 217.6 °C. Besides, the EC50 in the data set with basilar arteries was above 1000 nM.

In the case of `N#CNc1nccn1C1CCN(CC2CCc3ccccc3O2)CC1` (stereo not drawn) [Compound 59, [1-[1-[(3,4-dihydro-2H-1-benzopyran-2-yl)methyl]-4-piperidinyl]1H-imidazol-2-yl]cyanamide], the EC50 in the data set with basilar arteries is above 1000 nM.

`N#CN=C1NCCCN1CCCNCC1CCc2ccccc2O1` (racemic) [Compound 21, (±)-[1-[3-[[(3,4-dihydro-2H-1-benzopyran-2-yl)-methyl]-amino]propyl]hexahydro-2-pyrimidinylidene]cyanamide ethanedioate (1:1)] came in with a melting point of 177.5 °C. Further, in the data set with basilar arteries, the EC50 is 590 nM.

`O=C1NCCCN1CCCN(Cc1ccccc1)CC1CCc2ccccc2O1` (racemic) [Compound 13, (±)-1-[3-[[(3,4-dihydro-2H-1-benzopyran-2-yl)methyl](phenylmethyl)amino]propyl]-tetrahydro-2(1H)-pyrimidinone] yielded a melting point of 94.7 °C. Besides, the EC50 with basilar arteries was above 1000 nM. In addition, the “% effect (percentual effect on relaxation of the fundus)” value in the data set on fundus of the stomach turned out to be 0.4%.

`O=C(O)C(=O)O.O=C1NCCCN1CCCNCC1CCc2ccccc2O1` (racemic) [Compound 1, (±)-1-[3-[[(3,4-dihydro-2H-1-benzopyran-2-yl)methyl]amino]-propyl]-tetrahydro-2(1H)-pyrimidinone ethanedioate(1:1)] registered a melting point of 226.3 °C. In the data set on basilar arteries, the EC50 is above 1000 nM. For the same compound, in the data set with fundus of the stomach, the “% effect (percentual effect on relaxation of the fundus)” value is listed as 23.0%.

As a reminder, the melting point is the temperature, or range, at which the solid turns liquid.
